The text below walks through data of patent publication US20210087206A1, “MACROCYCLIC KINASE INHIBITORS AND THEIR USE” (TURNING POINT THERAPEUTICS, INC., priority 2017, published 2021).

SMILES strings stand for the structures.

As usually defined, the IC50 is the concentration needed to halve the response being measured. A low value points to greater potency.

Holding throughout (experiment): Cell proliferation assay (CellTiter-Glo)
Holding throughout (format): cell-based

The test system of assay [1] is KM12 (TPM3-TRKA). The note with it: Homo sapiens, anti-cell proliferation, 72 hours. In short, it runs like this: (§1)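 Cells seeded 24 h, then exposed to compounds for 72 h at 37° C., 5% CO2. Proliferation read by CellTiter-Glo luminescent ATP detection; IC50 from dose-response fits.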
The test system of assay [2] is KG-1 cell (OP2-FGFR1). The conditions noted are these: Homo sapiens, anti-cell proliferation, 72 hours. The method in brief: as §1
Assay [3] has as its target T1, BaF3 EML4-ALK (Homo sapiens, UniProt Q9UM73).
T1 construct: The EML4-ALK gene (variant 1) was synthesized at GenScript and cloned into pCDH-CMV-MCS-EF1-Puro plasmid (System Biosciences, Inc); fused on or other part: EML4 N-terminal part (variant 1: exons 1-13, with the coiled-coil that oligomerises the fusion) fused to the intracellular part of ALK, which contains the kinase domain; Q9HC35 (Echinoderm microtubule-associated protein-like 4)
The conditions noted are these: anti-cell proliferation, 72 hours. In short, it runs like this:
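Ba/F3 cells were lentivirally transduced with EML4-ALK variant 1 and selected for puromycin resistance and IL-3-independent growth. Proliferation was measured by CellTiter-Glo ATP luminescence to give IC50.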

T1 sequence (Q9UM73 whole entry, stated change not applied, the tested form may be a part): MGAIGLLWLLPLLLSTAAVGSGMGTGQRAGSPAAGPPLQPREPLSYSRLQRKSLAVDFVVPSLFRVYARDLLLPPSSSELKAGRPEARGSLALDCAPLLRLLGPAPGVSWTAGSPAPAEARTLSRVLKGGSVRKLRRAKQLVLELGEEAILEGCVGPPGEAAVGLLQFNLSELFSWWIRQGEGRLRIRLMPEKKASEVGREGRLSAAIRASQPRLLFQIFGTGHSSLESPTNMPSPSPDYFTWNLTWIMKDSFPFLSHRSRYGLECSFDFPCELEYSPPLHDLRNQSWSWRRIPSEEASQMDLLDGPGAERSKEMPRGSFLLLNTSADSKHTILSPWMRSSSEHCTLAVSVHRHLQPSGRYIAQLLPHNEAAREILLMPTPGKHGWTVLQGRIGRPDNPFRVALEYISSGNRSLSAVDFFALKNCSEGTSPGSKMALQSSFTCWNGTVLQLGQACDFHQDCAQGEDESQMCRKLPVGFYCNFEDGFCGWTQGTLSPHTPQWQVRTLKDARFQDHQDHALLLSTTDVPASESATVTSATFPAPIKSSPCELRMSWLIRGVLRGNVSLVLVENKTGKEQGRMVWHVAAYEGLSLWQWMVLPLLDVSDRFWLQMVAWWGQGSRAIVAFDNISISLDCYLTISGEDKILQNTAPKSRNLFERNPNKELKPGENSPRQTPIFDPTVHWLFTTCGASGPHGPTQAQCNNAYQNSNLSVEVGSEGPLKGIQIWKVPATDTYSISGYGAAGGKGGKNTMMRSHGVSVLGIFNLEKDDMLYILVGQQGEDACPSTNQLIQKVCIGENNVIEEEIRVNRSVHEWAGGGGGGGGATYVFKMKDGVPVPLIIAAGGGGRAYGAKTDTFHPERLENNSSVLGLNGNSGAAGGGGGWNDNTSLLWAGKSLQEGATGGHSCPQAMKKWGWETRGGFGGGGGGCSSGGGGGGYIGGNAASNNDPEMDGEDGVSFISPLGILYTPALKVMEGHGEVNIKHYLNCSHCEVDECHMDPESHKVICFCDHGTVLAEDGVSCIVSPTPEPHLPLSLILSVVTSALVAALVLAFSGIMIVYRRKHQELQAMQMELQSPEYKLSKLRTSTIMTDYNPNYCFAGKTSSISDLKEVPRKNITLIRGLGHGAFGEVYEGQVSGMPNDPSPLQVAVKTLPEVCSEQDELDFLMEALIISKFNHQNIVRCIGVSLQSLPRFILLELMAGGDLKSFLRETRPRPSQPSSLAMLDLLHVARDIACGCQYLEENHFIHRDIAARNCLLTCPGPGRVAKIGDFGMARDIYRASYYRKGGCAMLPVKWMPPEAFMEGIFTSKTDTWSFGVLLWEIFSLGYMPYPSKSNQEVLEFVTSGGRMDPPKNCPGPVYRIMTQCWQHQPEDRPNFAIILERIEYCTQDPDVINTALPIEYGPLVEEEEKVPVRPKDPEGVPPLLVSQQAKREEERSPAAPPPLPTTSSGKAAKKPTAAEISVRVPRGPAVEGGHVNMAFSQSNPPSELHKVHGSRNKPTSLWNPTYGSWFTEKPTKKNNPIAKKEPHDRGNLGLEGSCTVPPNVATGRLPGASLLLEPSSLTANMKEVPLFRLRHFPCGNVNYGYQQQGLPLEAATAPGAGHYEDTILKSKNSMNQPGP

With `CC[C@@H]1COc2cn3ncc4c3nc2N1Cc1cc(F)cnc1OCC(C)(C)NC4=O` [Compound 65, (4R)-4-ethyl-8-fluoro-13,13-dimethyl-3,4,13,14-tetrahydro-6H-18,1-(metheno)[1,4]oxazino[3,4-i]pyrazolo[4,3-f]pyrido[3,2-l][1,4,8,10]oxatriazacyclotridecin-15(12H)-one], the IC50 in assay [1] is under 0.2 nM; in assay [2] it was 42.1 nM; in assay [3], 164 nM.

Turning to `C[C@@H]1COc2cn3ncc4c3nc2N1Cc1cc(F)cnc1OCC1(CC1)CNC4=O` [Compound 67, (16′R)-12′-fluoro-16′-methyl-4′H,5′H,6′H,8′H,14′H,16′H,17′H-spiro[cyclopropane-1,7′-[9,18]-dioxa[1,2,5,10,15,20]hexaaza-[1,19](metheno)[1,4]oxazino[4,3-e]pyrazolo[3,4-h]pyrido[2,3-b] [1,5,7,11]oxatriazacyclotetradecin]-4′-one], the IC50 in assay [1] was under 0.2 nM; in assay [2], 8.8 nM; in assay [3], 32.4 nM.

Consider `C[C@@H]1COc2ncc(F)cc2CN2c3nc4c(cnn4cc3OCC2(C)C)C(=O)N1` [Compound 68, (13R)-8-fluoro-4,4,13-trimethyl-3,4,13,14-tetrahydro-6H-18,1-(metheno)[1,4]oxazino[3,4-i]-pyrazolo[4,3-f]pyrido[3,2-l] [1,4,8,10]oxatriazacyclotridecin-15(12H)-one], for which the IC50 in assay [1] was under 0.2 nM; in assay [2] it was 5690 nM; in assay [3], 339 nM.

Take `CC1CCNC(=O)c2cnn3cc4c(nc23)N(Cc2cc(F)cnc2O1)[C@H](C)CO4` (stereo partly drawn) [Compound 69, (16R)-12-fluoro-8,16-dimethyl-5,6,7,8,16,17-hexahydro-4H,14H-1,19-(metheno)[1,4]oxazino[4,3-e]pyrazolo[3,4-h]pyrido[2,3-b] [1,5,7,11]oxatriazacyclotetradecin-4-one]: the IC50 was under 0.2 nM in assay [1], 23.7 nM in assay [2] and 87.9 nM in assay [3].

For `C[C@@H]1COc2cn3ncc4c3nc2N1Cc1cc(F)cnc1OCCC(C)(C)NC4=O` [Compound 70, (16R)-12-fluoro-6,6,16-trimethyl-5,6,7,8,16,17-hexahydro-4H,14H-1,19-(metheno)[1,4]oxazino[4,3-e]pyrazolo[3,4-h]pyrido[2,3-b] [1,5,7,11]oxatriazacyclotetradecin-4-one], the values for the IC50 in assay [1], in assay [2] and in assay [3] were under 0.2 nM, 51.7 nM and 35.7 nM, respectively.

In the case of `CC1CNC(=O)c2cnn3cc4c(nc23)N(Cc2cc(F)cnc2OC1)[C@H](C)CO4` (stereo partly drawn) [Compound 71, (16R)-12-fluoro-7,16-dimethyl-5,6,7,8,16,17-hexahydro-4H,14H-1,19-(metheno)[1,4]oxazino[4,3-e]pyrazolo[3,4-h]pyrido[2,3-b] [1,5,7,11]oxatriazacyclotetradecin-4-one], the figures for the IC50 in assay [1], in assay [2] and in assay [3] were under 0.2 nM, 11.9 nM and 19.9 nM, respectively.

Consider `CC[C@@H]1COc2cn3ncc4c3nc2N1Cc1cc(F)cnc1OCC1(CC1)NC4=O` [Compound 72, (4′R)-4′-ethyl-8′-fluoro-3′H,4′H,6′H,12′H,14′H,15′H-spiro[cyclopropane-1,13′-[2,11]dioxa[5,10,14,17,18,19]hexaaza-[18,1](metheno)[1,4]oxazino-[3,4-i]pyrazolo[4,3-f]pyrido[3,2-l][1,4,8,10]oxatriazacyclotridecin]-15′-one], for which the IC50 in assay [1] is under 0.2 nM; in assay [2], 3.9 nM; in assay [3] it was 18.8 nM.

Turning to `CC[C@@H]1COc2cn3ncc4c3nc2N1Cc1cc(F)cnc1OCC1(CCC1)NC4=O` [Compound 73, (4′R)-4′-ethyl-8′-fluoro-3′H,4′H,6′H,12′H,14′H,15′H-spiro[cyclobutane-1,13’-[2,11]-dioxa[5,10,14,17,18,19]hexaaza-[18,1](metheno)[1,4]oxazino[3,4-i]pyrazolo[4,3-f]pyrido[3,2-l] [1,4,8,10]oxatriazacyclotridecin]-15′-one], the IC50 in assay [1] is under 0.2 nM; in assay [2], 5 nM; in assay [3], 93.1 nM.
